Tests used:
Test in all cases: Test J pre-/postemergence, mixtures of Cpd. No. 20 with (b15C2)
Format in all cases: in vivo
[1] = test system: mare's tail (ERICA; Conyza canadensis)
Text: (§1) This test evaluated the effect of mixtures of Cpd. No. 20 with (b15C2) on several plant species. Seeds of plant species selected from corn (ZEAMD; Zea mays, cv. ‘Pioneer 1184’), soybean (GLXMA; Glycine max, cv. Pioneer 35T58), giant foxtail (SETFA; Setaria faberi), palmer amaranth (AMAPA; Amaranthus palmeri), common waterhemp (AMATU; Amaranthus rudis), mare's tail (ERICA; Conyza canadensis), and common ragweed (AMBEL; Ambrosia artemisiifolia) were planted in pots containing Tama Silt Loam soil and treated preemergence with a directed soil spray using test chemicals formulated in a non-phytotoxic solvent mixture which included a surfactant.
(§2) At the same time, plants selected from these crop and weed species were planted in pots containing Redi-Earth® planting medium (Scotts Company, 14111 Scottslawn Road, Marysville, Ohio 43041) comprising spaghnum peat moss, vermiculite, wetting agent and starter nutrients and treated postemergence with test chemicals formulated in the same manner. Plants ranged in height from 2 to 10 cm and were in the one- to two-leaf stage for the postemergence treatment. Treated plants and untreated controls were maintained in a greenhouse for approximately 14-21 d, after which time all treated plants were compared to untreated controls and visually evaluated for injury. Plant response ratings, summarized in Tables J1 & J2, are based on a 0 to 100 scale where 0 is no effect and 100 is complete control. A dash (-) response means no test result. Test results are presented as a mean of 4 reps.

[2] = test system: corn (ZEAMD; Zea mays, cv. ‘Pioneer 1184’)
Text: as §1, §2

[3] = test system: common ragweed (AMBEL; Ambrosia artemisiifolia)
Text: as §1, §2

[4] = test system: common waterhemp (AMATU; Amaranthus rudis)
Text: as §1, §2

[5] = test system: giant foxtail (SETFA; Setaria faberi)
Text: as §1, §2

[6] = test system: soybean (GLXMA; Glycine max, cv. Pioneer 35T58)
Text: as §1, §2

[7] = test system: palmer amaranth (AMAPA; Amaranthus palmeri)
Text: as §1, §2

O=C(CCC(F)(F)F)c1c(Cl)cccc1Oc1ncc(Cl)cn1 [(b15C2), 1-[2-chloro-6-[(5-chloro-2-pyrimidinyl)oxy]phenyl]-4,4,4-trifluoro-1-butanone, reference compound]
ERICA plant response rating, 0 to 100 scale ([1]; postemergence, 8 g a.i./ha): 0 | ERICA plant response rating, 0 to 100 scale ([1]; postemergence, 16 g a.i./ha): 0 | ERICA plant response rating, 0 to 100 scale ([1]; postemergence, 31 g a.i./ha): 0 | ERICA plant response rating, 0 to 100 scale ([1]; postemergence, 62 g a.i./ha): 5 | ERICA plant response rating, 0 to 100 scale ([1]; preemergence, 8 g a.i./ha): 0 | ERICA plant response rating, 0 to 100 scale ([1]; preemergence, 16 g a.i./ha): 0 | ERICA plant response rating, 0 to 100 scale ([1]; preemergence, 31 g a.i./ha): 0 | ERICA plant response rating, 0 to 100 scale ([1]; preemergence, 62 g a.i./ha): 13 | ZEAMD plant response rating, 0 to 100 scale ([2]; postemergence, 8 g a.i./ha): 3 | ZEAMD plant response rating, 0 to 100 scale ([2]; postemergence, 16 g a.i./ha): 5 | ZEAMD plant response rating, 0 to 100 scale ([2]; postemergence, 31 g a.i./ha): 9 | ZEAMD plant response rating, 0 to 100 scale ([2]; postemergence, 62 g a.i./ha): 10 | ZEAMD plant response rating, 0 to 100 scale ([2]; preemergence, 8 g a.i./ha): 0 | ZEAMD plant response rating, 0 to 100 scale ([2]; preemergence, 16 g a.i./ha): 0 | ZEAMD plant response rating, 0 to 100 scale ([2]; preemergence, 31 g a.i./ha): 0 | ZEAMD plant response rating, 0 to 100 scale ([2]; preemergence, 62 g a.i./ha): 0 | AMBEL plant response rating, 0 to 100 scale ([3]; postemergence, 8 g a.i./ha): 5 | AMBEL plant response rating, 0 to 100 scale ([3]; postemergence, 16 g a.i./ha): 3 | AMBEL plant response rating, 0 to 100 scale ([3]; postemergence, 31 g a.i./ha): 10 | AMBEL plant response rating, 0 to 100 scale ([3]; postemergence, 62 g a.i./ha): 20 | AMBEL plant response rating, 0 to 100 scale ([3]; preemergence, 8 g a.i./ha): 0 | AMBEL plant response rating, 0 to 100 scale ([3]; preemergence, 16 g a.i./ha): 0 | AMBEL plant response rating, 0 to 100 scale ([3]; preemergence, 31 g a.i./ha): 0 | AMBEL plant response rating, 0 to 100 scale ([3]; preemergence, 62 g a.i./ha): 15 | AMATU plant response rating, 0 to 100 scale ([4]; postemergence, 8 g a.i./ha): 43 | AMATU plant response rating, 0 to 100 scale ([4]; postemergence, 16 g a.i./ha): 55 | AMATU plant response rating, 0 to 100 scale ([4]; postemergence, 31 g a.i./ha): 75 | AMATU plant response rating, 0 to 100 scale ([4]; postemergence, 62 g a.i./ha): 83 | AMATU plant response rating, 0 to 100 scale ([4]; preemergence, 8 g a.i./ha): 20 | AMATU plant response rating, 0 to 100 scale ([4]; preemergence, 16 g a.i./ha): 79 | AMATU plant response rating, 0 to 100 scale ([4]; preemergence, 31 g a.i./ha): 100 | AMATU plant response rating, 0 to 100 scale ([4]; preemergence, 62 g a.i./ha): 100 | SETFA plant response rating, 0 to 100 scale ([5]; postemergence, 8 g a.i./ha): 5 | SETFA plant response rating, 0 to 100 scale ([5]; postemergence, 16 g a.i./ha): 5 | SETFA plant response rating, 0 to 100 scale ([5]; postemergence, 31 g a.i./ha): 8 | SETFA plant response rating, 0 to 100 scale ([5]; postemergence, 62 g a.i./ha): 6 | SETFA plant response rating, 0 to 100 scale ([5]; preemergence, 8 g a.i./ha): 8 | SETFA plant response rating, 0 to 100 scale ([5]; preemergence, 16 g a.i./ha): 64 | SETFA plant response rating, 0 to 100 scale ([5]; preemergence, 31 g a.i./ha): 95 | SETFA plant response rating, 0 to 100 scale ([5]; preemergence, 62 g a.i./ha): 100 | GLXMA plant response rating, 0 to 100 scale ([6]; postemergence, 8 g a.i./ha): 20 | GLXMA plant response rating, 0 to 100 scale ([6]; postemergence, 16 g a.i./ha): 29 | GLXMA plant response rating, 0 to 100 scale ([6]; postemergence, 31 g a.i./ha): 43 | GLXMA plant response rating, 0 to 100 scale ([6]; postemergence, 62 g a.i./ha): 68 | GLXMA plant response rating, 0 to 100 scale ([6]; preemergence, 8 g a.i./ha): 0 | GLXMA plant response rating, 0 to 100 scale ([6]; preemergence, 16 g a.i./ha): 0 | GLXMA plant response rating, 0 to 100 scale ([6]; preemergence, 31 g a.i./ha): 0 | GLXMA plant response rating, 0 to 100 scale ([6]; preemergence, 62 g a.i./ha): 0 | AMAPA plant response rating, 0 to 100 scale ([7]; postemergence, 8 g a.i./ha): 20 | AMAPA plant response rating, 0 to 100 scale ([7]; postemergence, 16 g a.i./ha): 38 | AMAPA plant response rating, 0 to 100 scale ([7]; postemergence, 31 g a.i./ha): 56 | AMAPA plant response rating, 0 to 100 scale ([7]; postemergence, 62 g a.i./ha): 74 | AMAPA plant response rating, 0 to 100 scale ([7]; preemergence, 8 g a.i./ha): 63 | AMAPA plant response rating, 0 to 100 scale ([7]; preemergence, 16 g a.i./ha): 90 | AMAPA plant response rating, 0 to 100 scale ([7]; preemergence, 31 g a.i./ha): 100 | AMAPA plant response rating, 0 to 100 scale ([7]; preemergence, 62 g a.i./ha): 100

— patent US12435044B2, “Pyridazinone herbicides and pyridazinone intermediates used to prepare a herbicide” (FMC Corporation, priority 2018, dated 2025)
